Results: PMC9919513, “A Practical Approach to Bicyclic Carbamoyl Pyridones with Application to the Synthesis of HIV-1 Integrase Strand Transfer Inhibitors” (Molecules, 2023)

Experiment: in vitro
Format: cell-based
Details: human, HOS cells, 48 h; read-out: CC50, cytotoxic concentration resulting in 50% reduction in the level of ATP
Method: Human embryonic kidney cell culture cell line 293 was acquired from the American Type Culture Collection (ATCC). The human osteosarcoma cell line, HOS, was obtained from Dr. Richard Schwartz (Michigan State University, East Lansing, MI, USA) and grown in Dulbecco’s modified Eagle’s medium (Invitrogen, Carlsbad, CA, USA) supplemented with 5% (v/v) fetal bovine serum, 5% newborn calf serum, and penicillin (50 units/mL) plus streptomycin (50 µg/mL; Quality Biological, Gaithersburg, MD, USA). The transfection vector, pNLNgoMIVR-ΔLUC was made from pNLNgoMIVR-ΔEnv.HSA by removing the HSA reporter gene and replacing it with a luciferase reporter gene between the NotI and XhoI restriction sites. To produce the new IN mutant S230N used in this study, the IN open reading frame was removed from pNLNgoMIVR-ΔENV.LUC by digestion with KpnI and SalI, and the resulting fragment was inserted between the KpnI and SalI sites of pBluescript KS+. Using that construct as the wild-type template, we prepared the following HIV-1 IN mutant S230N using the QuikChange II XL site-directed mutagenesis kit (Agilent Technologies, Santa Clara, CA, USA) protocol. The following sense oligonucleotides were used with matching cognate antisense oligonucleotides (not shown) (Integrated DNA Technologies, Coralville, IA, USA) in the mutagenesis: S230N 5′-[…]-3′. The DNA sequence of the IN mutant S230N construct was verified independently by DNA sequence determination. The mutated IN coding sequences from pBluescript KS+ were then subcloned into pNLNgoMIVR-ΔEnv.LUC (between the KpnI and SalI sites) to produce mutant HIV-1 constructs, which were also checked by DNA sequencing. […]. On the day prior to transfection, 293 cells were plated on 100 mm diameter dishes at a density of 1.5 × 10^6 cells per plate. Next, 293 cells were transfected with 16 µg of pNLNgoMIVR^-ΔLUC and 4 µg of pHCMV-g (obtained from Dr. Jane Burns, University of California, San Diego) using the calcium phosphate method. At approximately 6 h after the calcium phosphate precipitate was added, 293 cells were washed twice with phosphate-buffered saline (PBS) and incubated with fresh media for 48 h. The virus-containing supernatants were then harvested, clarified by low-speed centrifugation, filtrated, and diluted for preparation in antiviral infection assays. On the day prior to the screen, HOS cells were seeded in a 96-well luminescence cell culture plate at a density of 4000 cells in 100 µL per well. On the day of the screen for cellular cytotoxicity determination, cells were treated with compounds from a concentration range of 250 µM to 0.05 µM and then incubated at 37 °C for 48 h. On the day of the screen for antiviral activity infection assays, cells were treated with compounds from a concentration range of 5 µM to 0.0001 µM using 11 serial dilutions and then incubated at 37 °C for 3 h. After compound incorporation and activation in the cell, 100 µL of virus-stock (WT or mutant) diluted to achieve a luciferase signal between 0.2 and 1.5 Relative Luciferase Units (RLUs) was added to each well and further incubated at 37 °C for 48 h. Cellular cytotoxicity was measured by using the ATP Lite Luminescence detection system and monitored by adding 50 µL of cell lysis buffer from the Luminescence ATP detection assay to each well followed by mixing at 700 rpm at room temperature for 5 min using a compact thermomixer. After addition of 50 µL of reconstituted Luminescence ATP detection assay reagent to all wells except for the negative control/background wells, the plates were mixed at 700 rpm at room temperature for 5 min using a compact thermomixer, incubated at room temperature for 20 min to allow time for signal development, and finally, cytotoxicity was determined using the microplate reader. Infectivity was measured by using the Steady-lite plus luminescence reporter gene assay system (PerkinElmer, Waltham, MA, USA). […]

O=C(NCc1ccc(F)cc1F)c1cn2ccn(CCCCCO)c(=O)c2c(O)c1=O [Compound 6d, N-(2,4-Difluorobenzyl)-9-hydroxy-2-(5-hydroxypentyl)-1,8-dioxo-1,8-dihydro-2H-pyrido [1,2-a]pyrazine-7-carboxamide]
CC50: > 250 µM

O=C(NCc1ccc(F)cc1F)c1cn2c(c(O)c1=O)C(=O)N(CCCCCCO)CC2 [Compound 7c, N-(2,4-Difluorobenzyl)-9-hydroxy-2-(6-hydroxyhexyl)-1,8-dioxo-1,3,4,8-tetrahydro-2H-pyrido [1,2-a]pyrazine-7-carboxamide]
CC50: > 250 µM

O=C(NCc1ccc(F)cc1F)c1cn2ccn(CCCCO)c(=O)c2c(O)c1=O [Compound 6e, N-(2,4-Difluorobenzyl)-9-hydroxy-2-(4-hydroxybutyl)-1,8-dioxo-1,8-dihydro-2H-pyrido [1,2-a]pyrazine-7-carboxamide]
CC50: > 250 µM

O=C(NCc1ccc(F)cc1F)c1cn2c(c(O)c1=O)C(=O)N(CCCCO)CC2 [Compound 7e, N-(2,4-Difluorobenzyl)-9-hydroxy-2-(4-hydroxybutyl)-1,8-dioxo-1,3,4,8-tetrahydro-2H-pyrido [1,2-a]pyrazine-7-carboxamide]
CC50: > 250 µM

O=C(NCc1ccc(F)cc1F)c1cn2ccn(CCCCCCO)c(=O)c2c(O)c1=O [Compound 6c, N-(2,4-Difluorobenzyl)-9-hydroxy-2-(6-hydroxyhexyl)-1,8-dioxo-1,8-dihydro-2H-pyrido [1,2-a]pyrazine-7-carboxamide]
CC50: > 250 µM
